In patent US20160193240A1, “Ulmoside-A: Useful For Prevention Or Cure Of Metabolic Diseases” (COUNCIL OF SCIENTIFIC & INDUSTRIAL RESEARCH, priority 2013, published 2016):

Experiments:
wistar rats [1] = test: Dexamethasone-induced skeletal muscle atrophy in rats (limb appearance, QRT-PCR of PGC-1α and atrogenes); type: in vivo, rat
Method: Following 15 d indicated treatment of rats, the skeletal muscle (pulled hind limb) were collected and RNA was extracted from them and QRT-PCR was performed in a Roche lightcycler 480 machine. Data represents mean+/−SEM from six animals done in triplicates. “a” statistical analysis between Vehicle and Dexamethasone-treated groups, “b”, statistical analysis between dex-treated and dex+ ULMA groups. P<0.05, as determined by student's t-test, n=6.
(§1) Blood was collected from cardiac punctures.
RNA was isolated from skeletal muscles using Trizol (according to manufacturers' protocol) and reverse transcribed as described above and either PGC-1α expression or muscle atrophy related genes (atrogenes) expression were examined.

pAMPK, pACC and pP38 = test: AMPK, ACC and p38 phosphorylation by western blot in C2C12 myotubes; type: cell-based, mouse; conditions: 10 nM
Method: A. ULMA induces rapid AMPK and p38MAPK signaling. C2C12 myotubes in 10 cm dishes were treated with vehicle (0.1% vol/vol DMSO; 0 min) or 10 nM ULMA for different time points ranging from 1 min to 24 h (final concentration of DMSO in all wells were 0.1% vol/vol). Following treatment, the cells were washed with ice-cold PBS and then lysed. The total protein was estimated by Bradford assay and equal amount of protein (50 μg) was resolved by denaturing polyacrylamide gel electrophoresis and western blotted to determine pAMPK, pACC and pP38 level. Total AMPK, total ACC or total P38 levels were used as loading controls. Data is representative of three independent experiments displaying identical pattern (right panel depicts densitometry from 3 experiments).
B. AdipoR1 overexpression enhances ULMA effect on AMPK and p38 MAPK signaling. C2C12 myoblasts growing in T75 flasks were trypsinized and transfected with […] of either empty vector (pcDNA3) or AdipoR1 expression plasmid using lipofectamine LTX transfection reagent and then the cells were plated in 10 cm dishes. 24 h following transfection, cells were incubated in differentiation medium and maintained in the same medium for 96 h when the cells differentiated fully into myotubes. These cells were then treated with vehicle (DMSO) or ULMA (10 nM) for 10 mins. The cells were then lysed and western blotted for the indicated proteins. Data is representative of three independent experiments displaying identical pattern.
C. Knockdown of AdipoR1 abrogates ULMA effect on AMPK and p38 signalling. C2C12 myotubes in 6 well plates were transfected with 100 nM non-silencing control or AdipoR1 siRNAs using DharmaFECT 1 transfection reagent (Thermo). 72 h following transfection, cells were treated with vehicle (DMSO) or ULMA (10 nM) for 10 min and were western blotted to evaluate pAMPK, pACC, p38, AdipoR1, and R2 status. Total AMPK, ACC, p38 and beta-actin were used as loading controls.
C2C12 myotubes in 10 cm dishes were treated with vehicle (0.1% DMSO; 0 min) or 10 nM ULMA for different time points ranging from 1 min to 24 hour. Following treatment, the cells were washed with ice-cold PBS and then lysed in lysis buffer [1M NaCl, 50 mM HEPES and 0.1% triton X 100 containing 1× protease inhibitor cocktail and 1× phosphates inhibitor cocktail (Sigma)]. The total protein was estimated by Bradford assay and equal amount of protein (50 μg) was resolved by denaturing polyacrylamide gel electrophoresis and western blotted for determination of pAMPK, pACC and pP38 levels (in all the cases the primary antibodies were used in 1:1000 dilution and all the antibodies were from Cell signaling technology). Total AMPK, ACC and p38 expressions were also detected and used as loading controls (all the antibodies were from Cell signaling technology and were used in 1:1000 dilution). […] To evaluate if AdipoRs are indeed involved in the regulation of these pathways by ULMA, C2C12 myoblasts growing in T75 flasks were trypsinized and transfected with 10 μg of either empty vector (pcDNA3) or AdipoR1 expression plasmid using lipofectamine LTX transfection reagent and then the cells were plated in 10 cm dishes. 24 hours following transfection, cells were incubated in differentiation medium and were maintained in the same medium for 96 hours when the cells fully differentiated into myotubes. These cells were then treated with vehicle (DMSO) or ULMA (10 nM) for 10 min. The cells were then lysed (as mentioned above) and western blotted. […] This was further validated in knockdown experiments where C2C12 myotubes in 6 well plates were transfected with 100 nM non-silencing control or AdipoR1 siRNAs using DharmaFECT 1 transfection reagent (Thermo). 72 hours following transfection, cells were treated with vehicle (DMSO) or ULMA (10 nM) for 10 min and were western blotted to evaluate pAMPK, pACC, pP38, AdipoR1, and R2 status.

wistar rats [2] = test: Dexamethasone-mediated reduction of food intake in rats; type: in vivo, rat
Method: Six to eight week old wistar rats (n=6 per group) were housed separately and treated as indicated in the example. Daily food intake was measured and plotted. […] Data represents mean+/−SEM.
as §1
Food intake was measured every alternate day by giving measured food to each cage in evening (5.00 PM) and collection of residual food in next morning (9.00 AM) and measuring it. The residual food was subtracted from the food given and plotted.

Question: How did the “Dex-caused reduction of skeletal muscle PGC-1α level” value (wistar rats [1]; Dex + ULMA) turn out when `O=C1c2c(cc(O)c([C@@H]3O[C@H](CO)[C@@H](O)[C@H](O)[C@H]3O)c2O)O[C@@H](c2ccc(O)c(O)c2)[C@@H]1O` [ULMA, (2S,3S)-(+)-3′,4′,5,7-tetrahydroxydihydroflavonol-6-C-β-D-glucopyranoside] was run?
Answer: protected

Question: And the “protection against induction of atrogenes by dexamethasone” value (wistar rats [1]; Dex + ULMA)?
Answer: completely protected

Question: And the “skeletal muscle PGC-1α expression” value (wistar rats [1]; ULMA alone)?
Answer: robust induction

Question: And the Dex-induced limb abnormality (wistar rats [1]; ULMA co-treatment with Dex)?
Answer: prevented it

Question: What about the “phosphorylation of ACC” value (pAMPK, pACC and pP38; 1 min to 24 hour) of the same compound?
Answer: rapid and robust phosphorylation

Question: And the “phosphorylation of AMPK” value (pAMPK, pACC and pP38; 1 min to 24 hour)?
Answer: rapid and robust phosphorylation

Question: What about the “phosphorylation of p38” value (pAMPK, pACC and pP38; 1 min to 24 hour) of the same compound?
Answer: phosphorylated

Question: And the “response on AMPK, ACC and p38 phosphorylation with siAdipoR1” value (pAMPK, pACC and pP38; 10 min, 100 nM AdipoR1 siRNA)?
Answer: completely obliterated ULMA response

Question: And the “effect on AMPK and p38 MAPK signaling with AdipoR1 overexpression” value (pAMPK, pACC and pP38; 10 min, AdipoR1 expression plasmid vs empty vector)?
Answer: robust increase in effect of ULMA

Question: What about the “AMPK, ACC and p38 phosphorylation with control siRNA (siC)” value (pAMPK, pACC and pP38; 10 min, non-silencing control siRNA) of the same compound?
Answer: phosphorylated AMPK, ACC and P38

Question: What about the “food intake in vehicle treated (ethanol: IP) rats” value (wistar rats [2]; 5 mg/kg ULMA oral alone) of the same compound?
Answer: did not affect food intake

Question: What about the “Dex-caused loss in food intake” value (wistar rats [2]; Dex + 5 mg/kg ULMA oral) of the same compound?
Answer: alleviated it
